Assay results taken from patent US11389537B2, “Drug delivery system for sustained delivery of bioactive agents” (UPM-Kymmene Corporation, priority 2011, dated 2022).
Converted amounts (≈) assume the structure as drawn. Counter-ions that a name gives are not always drawn. Like-named read-outs stand apart in the source and are kept apart here. Values belong to the molecule of their own block, whether it stands above or below them.

What was measured:
[1] = Stability in water solution of tested drugs; assay type: physicochemical
Description: (§1) NFC has strong affinity to water, which makes drying it difficult. The residence time in the spray-drying chamber is short and therefore high temperature needs to be used in drying. If lower temperature and/or higher feeding rates were to be used, the wet material would adhere to the chamber. The application of high temperature when spray drying the aqueous suspension of NFC containing an API, increases the risk of degradation of the API during the drying process. High temperature is also a limitation for the choice of the API if its melting point is low (Table 11, showing the values of melting point (Tm), water solubility and stability in water solution of tested drugs). Generally, particles reach a maximum temperature during spraying, which is 15-20° C. below the outlet temperature of a co-current dryer.

[2] = Solubility in water of tested drugs; assay type: physicochemical; conditions: value obtained from testing
Description: as §1, with “dryer. During the particle production outlet temperatures were in the range of 120-127° C., which was sufficient for successful drying.” for “dryer.”

[3] = cited from earlier work
[4] = Contact angle between matrix surface and water drop; conditions: water drop on matrix surface or pure drug

Stability in water solution (21° C.) ([1]; obtained from testing): *up to 30 days | solubility [2]: 6770 µg/mL (≈ 21.9 mM)
Structure (SMILES): CC(C)(C)NCC(O)COc1cccc2c1CC(O)C(O)C2 (stereo not shown) [Nadolol, nadolol]

Stability in water solution (21° C.) ([1]; obtained from testing): *up to 60 days
Structure (SMILES): COCCc1ccc(OCC(O)CNC(C)C)cc1 (stereo not shown) [Metoprolol tartrate, metoprolol tartrate]
Solubility in water (words) [3]: freely

Structure (SMILES): CC(C)Cc1ccc(C(C)C(=O)O)cc1 (stereo not shown) [Ibuprofen, ibuprofen]
Solubility (50 mM NH4OH) ([3]; 50 mM NH4OH): 6000 µg/mL (≈ 29.1 mM)

Contact angle [4]: 76.7 | Stability in water solution (21° C.) ([1]; pH 7.4, obtained from testing): *pH 7.4 up to 4 days
Structure (SMILES): COc1ccc2c(c1)c(CC(=O)O)c(C)n2C(=O)c1ccc(Cl)cc1 [Indomethacin, indomethacin]
Solubility in water [3]: <1 µg/mL | Solubility in water (words) [3]: ↑ with ↑ pH | Solubility in water ([3]; line below '↑ with ↑ pH'): <1000 µg/mL
